Experimental data reported in patent US10017492B2 (KANGPU BIOPHARMACEUTICALS, LTD., priority 2014, dated 2018).
Like-named read-outs stand apart in the source and are kept apart here.

Assays:
TNF-α = TNF-α activity inhibiting assay (LPS-stimulated peripheral blood, ELISA); type: cell-based, human; conditions: compound 100 nM, diluted peripheral blood of healthy volunteers, LPS 10 ng/mL, 6 hours; for inhibition at 0.1 µM: Homo sapiens, read-out: Inhibitory Rate on TNF-α (%)
Description: TNF-α Activity Inhibiting Assay
Peripheral blood from healthy volunteers was collected and collected with EDTA anticoagulant tubes. After being diluted 5-fold with 1640 medium (Gibco, catalog number 11875-093, USA), the blood was added to 96-well cell culture plates (Costar, catalog number 3599, USA) and then treated with 10 μL solution of the compound of general formula (I) of the present invention in DMSO (Sigma, catalog number D2650, USA). The final concentration of the compound was 100 nM, and the final concentration of DMSO was 0.2%. After incubation for 60 minutes in an incubator at 37° C. under 5% CO2, 10 μL LPS (Sigma, catalog number L-2880, USA) was added to the reaction system, and the final concentration was 10 ng/mL. After further culturing for 6 hours in the incubator at 37° C. under 5% CO2, the supernatant was collected. The content of TNF-α was determined by ELISA (BD Biosciences, catalog number 555212, USA). Absorbance was detected at OD450 nm with a microplate reader, with OD 650 nm as reference. The control, a solution containing 0.2% DMSO medium, was as 0% inhibition. Raw data and standard curves were recorded. The four-parameter drug inhibition curve was plotted by XL-fit software and the inhibition rate of each compound was calculated, as shown in Table 1.

[1] = tested on: MM.1S cells (myeloma cells); test: Cell proliferation assay (MTS), MM.1S myeloma cells; type: cell-based; conditions: 72 hours, read-out: IC50 values of MMIS Inhibition
Description: MM.1S cells (myeloma cells) (ATCC, catalog number CRL-2974) were seeded at 1.8×10^3 per well to a 96-well culture plate containing […] (Gibco, catalog number A10491-01), and were incubated in an incubator for 24 hours at 37° C. under 5% CO2. Compounds were prepared as 20 mM stock solutions with DMSO (Sigma, catalog number D2650), and were diluted with the medium to the desired concentration (the final concentration of DMSO was 0.5%) and then were added to each well, incubated in an incubator for 72 hours at 37° C. under 5% CO2. Then, 20 μL MTS (Promega, catalog number G3581) was added to each well, and further incubated for 1-4 hours in an incubator at 37° C. under 5% CO2. OD490 nm was detected with OD650 nm as reference. The control, a solution containing 0.5% DMSO medium, was as 0% inhibition. GraphPad Prism 5 was used, slope was allowed to change to make the dose-effect curve and IC50 values were calculated, shown in table 2 for details.

SMILES	inhibition at 0.1 µM (TNF-α) [%]	IC50 ([1]; Homo sapiens, MM1.S) [nM]	Inhibitory Rate on TNF-α (%) (TNF-α)	IC50 [1] [nM]
[2H][C@]1(N2Cc3c(OCc4cc(OC)ccc4F)cccc3C2=O)CCC(=O)NC1=O [Compound A379, (S)-3-deuterium-3-(4-((2-fluoro-5-methoxybenzyl)oxy)-1-oxoisoindolin-2-yl)piperidine-2,6-dione]	< 50	< 300	–	–
COc1ccc(F)c(COc2cccc3c2CN(C2CCC(=O)NC2=O)C3=O)c1 (centres unmarked) [Compound A331, 3-(4-((2-fluoro-5-methoxybenzyl)oxy)-1-oxoisoindolin-2-yl)piperidine-2,6-dione]	≥ 50	< 300	–	–
O=C1CCC(N2Cc3c(NCc4cc(O)ccc4F)cccc3C2=O)C(=O)N1 (centres unmarked) [Compound A364, 3-(4-((2-fluoro-5-hydroxybenzyl)amino)-1-oxoisoindolin-2-yl)piperidine-2,6-dione]	< 50	< 300	–	–
O=C1CCC(N2Cc3c(OCc4ccc(CN5CCOCC5)cc4)cc(F)cc3C2=O)C(=O)N1 (centres unmarked) [Compound A327, 3-(6-fluoro-4-((4-(morpholinomethyl)benzyl)oxy)-1-oxoisoindolin-2-yl)-piperidine-2,6-dione]	< 50	< 300	–	–
[2H][C@]1(N2Cc3c(OCc4ccc(OC)cc4F)cccc3C2=O)CCC(=O)NC1=O [Compound A393, (S)-3-deuterium-3-(4-((2-fluoro-4-methoxybenzyl)oxy)-1-oxoisoindolin-2-yl)piperidine-2,6-dione]	< 50	< 300	–	–
O=C1CCC(N2Cc3c(OCc4cc(CN5CCOCC5)ccc4F)cccc3C2=O)C(=O)N1 (centres unmarked) [Compound A398, 3-(4-((2-fluoro-5-(morpholinomethyl)benzyl)oxy)-1-oxoisoindolin-2-yl)-piperidine-2,6-dione]	≥ 50	< 300	–	–
[2H][C@]1(N2Cc3c(OCc4cccc(OC)c4F)cccc3C2=O)CCC(=O)NC1=O [Compound A380, (S)-3-deuterium-3-(4-((2-fluoro-3-methoxybenzyl)oxy)-1-oxoisoindolin-2-yl)piperidine-2,6-dione]	< 50	< 300	–	–
[2H]C1(N2Cc3c(NCc4ccc(CN5CCOCC5)cc4F)cccc3C2=O)CCC(=O)NC1=O (centres unmarked) [Compound A426]	–	–	≥50	< 300
Cc1cc(CNc2cccc3c2CN(C2CCC(=O)NC2=O)C3=O)ccc1F (centres unmarked) [Compound A351, 3-(4-((4-fluoro-3-methylbenzyl)amino)-1-oxoisoindolin-2-yl)piperidine-2,6-dione]	< 50	< 300	–	–
COc1ccc(CNc2cc(F)cc3c2CN(C2CCC(=O)NC2=O)C3=O)c(F)c1 (centres unmarked) [Compound A319, 3-(6-fluoro-4-((2-fluoro-4-methoxybenzyl)amino)-1-oxoisoindolin-2-yl)-piperidine-2,6-dione]	< 50	≥ 300	–	–
[2H][C@@]1(N2Cc3c(OCc4ccc(OC)cc4F)cccc3C2=O)CCC(=O)NC1=O [Compound A392, (R)-3-deuterium-3-(4-((2-fluoro-4-methoxybenzyl)oxy)-1-oxoisoindolin-2-yl)piperidine-2,6-dione]	≥ 50	< 300	–	–
CNc1ccc(F)c(COc2cccc3c2CN(C2CCC(=O)NC2=O)C3=O)c1 (centres unmarked) [Compound A390, 3-(4-((2-fluoro-5-(methylamino)benzyl)oxy)-1-oxoisoindolin-2-yl)piperidine-2,6-dione]	≥ 50	≥ 300	–	–
CNC(=O)Oc1ccc(F)c(CNc2cccc3c2CN(C2CCC(=O)NC2=O)C3=O)c1 (centres unmarked) [Compound A371, 3-(((2-(2,6-Dioxopiperidin-3-yl)-1-oxoisoindolin-4-yl)amino)methyl)-4-fluorophenyl methylcarbamate]	≥ 50	< 300	–	–
Nc1ccc(F)c(CNc2cccc3c2CN(C2CCC(=O)NC2=O)C3=O)c1 (centres unmarked) [Compound A391, 3-(4-((5-amino-2-fluorobenzyl)amino)-1-oxoisoindolin-2-yl)piperidine-2,6-dione]	≥ 50	≥ 300	–	–
[2H][C@]1(N2Cc3c(NCc4ccc(CN5CCOCC5)cc4)cccc3C2=O)CCC(=O)NC1=O [Compound A373, (S)-3-deuterium-3-(4-((4-(morpholinomethyl)benzyl)amino)-1-oxoisoindolin-2-yl)piperidine-2,6-dione]	≥ 50	< 300	–	–
[2H][C@@]1(N2Cc3c(NCc4cc(OC)ccc4F)cccc3C2=O)CCC(=O)NC1=O [Compound A342, (R)-3-deuterium-3-(4-((2-fluoro-5-methoxybenzyl)amino)-1-oxoisoindolin-2-yl)piperidine-2,6-dione]	< 50	≥ 300	–	–
[2H][C@]1(N2Cc3c(NCc4cc(CN5CCOCC5)ccc4F)cccc3C2=O)CCC(=O)NC1=O [Compound A401, (S)-3-deuterium-3-(4-((2-fluoro-5-(morpholinomethyl)benzyl)amino)-1-oxoisoindolin-2-yl)piperidine-2,6-dione]	≥ 50	< 300	–	–
NS(=O)(=O)c1cccc(CNc2cccc3c2CN(C2CCC(=O)NC2=O)C3=O)c1F (centres unmarked) [Compound A389, 3-(((2-(2,6-dioxopiperidin-3-yl)-1-oxoisoindolin-4-yl)amino)methyl)-2-fluorobenzenesulfonamide]	< 50	< 300	–	–
[2H]C1(N2Cc3c(OCc4ccc(CN5CCOCC5)cc4F)cccc3C2=O)CCC(=O)NC1=O (centres unmarked) [Compound A425, 3-deuterium-3-(4-((2-fluoro-5-(morpholinomethyl)benzyl)oxy)-1-oxoisoindolin-2-yl)piperidine-2,6-dione]	–	–	≥50	< 300
Cc1ccc(CNc2cccc3c2CN(C2CCC(=O)NC2=O)C3=O)cc1C (centres unmarked) [Compound A350, 3-(4-((3,4-dimethylbenzyl)amino)-1-oxoisoindolin-2-yl)piperidine-2,6-dione]	< 50	< 300	–	–
Nc1cccc(CNc2cccc3c2CN(C2CCC(=O)NC2=O)C3=O)c1F (centres unmarked) [Compound A384, 3-(4-((3-amino-2-fluorobenzyl)amino)-1-oxoisoindolin-2-yl)piperidine-2,6-dione]	≥ 50	< 300	–	–
CNc1ccc(F)c(CNc2cccc3c2CN(C2CCC(=O)NC2=O)C3=O)c1 (centres unmarked) [Compound A387, 3-(4-((2-fluoro-5-(methylamino)benzyl)amino)-1-oxoisoindolin-2-yl)piperidine-2,6-dione]	≥ 50	< 300	–	–
Cc1ccc(CNc2cccc3c2CN(C2CCC(=O)NC2=O)C3=O)cc1Cl (centres unmarked) [Compound A352, 3-(4-((3-chloro-4-methylbenzyl)amino)-1-oxoisoindolin-2-yl)piperidine-2,6-dione]	< 50	< 300	–	–
O=C1CCC(N2Cc3c(NCc4ccc(O)cc4F)cccc3C2=O)C(=O)N1 (centres unmarked) [Compound A396, 3-(4-((2-fluoro-4-hydroxybenzyl)amino)-1-oxoisoindolin-2-yl)piperidine-2,6-dione]	< 50	≥ 300	–	–
CN(C)CCOc1ccc(F)c(CNc2cccc3c2CN(C2CCC(=O)NC2=O)C3=O)c1 (centres unmarked) [Compound A363, 3-(4-((5-(2-(Dimethylamino)ethoxy)-2-fluorobenzyl)amino)-1-oxoisoindolin-2-yl)piperidine-2,6-dione]	< 50	≥ 300	–	–
